According to US20070059272A1 (priority 2005, published 2007):
Entries after “also recorded” stand apart in the source; their conditions may differ.

How the values were obtained:
PA-IL in P. aeruginosa = details: cited from earlier work
[1] = tested on: PA-I expression in P. aeruginosa; assay type: cell-based, Pseudomonas aeruginosa
P. aeruginosa = assay type: cell-based, Pseudomonas aeruginosa
lecA (PA-I) mRNA in PAO1 = test: Northern blot of PA-I (lecA) mRNA in PAO1; assay type: cell-based, Pseudomonas aeruginosa; details: for PA-I mRNA by Northern blot: PAO1, 200 ng/ml cytokine in cell culture media, 4 hours
[2] = tested on: PA-I protein expression in PAO1; assay type: cell-based, Pseudomonas aeruginosa
[3] = tested on: pyocyanin (PCN) production in P. aeruginosa PAO1; assay type: cell-based, Pseudomonas aeruginosa
[4] = tested on: PCN production in PAO1 mutant strains; assay type: cell-based, Pseudomonas aeruginosa
[5] = in vivo, iv; cited from earlier work
P. aeruginosa PA27853 = test: Mice with slow release morphine pellets drinking PA27853-spiked formula; assay type: in vivo; details: daily oral 1×10^8 cfu/ml PA27853
[6] = tested on: PA-I expression in Pseudomonas strain PA27853; test: Quantitative RT-PCR of PA-I mRNA in PA27853 exposed to morphine; assay type: cell-based, Pseudomonas aeruginosa
[7] = tested on: membrane protein fractions of P. aeruginosa; test: Morphine binding to P. aeruginosa membrane protein fractions; design: species or system Pseudomonas aeruginosa
[8] = target: membrane proteins of P. aeruginosa strain PAO1 (whole fixed cells, membrane fractions, solubilized membrane proteins)
PA-I = PA-I (Pseudomonas aeruginosa, UniProt Q05097); details: cited from earlier work
[9] = tested on: intestinal epithelial cells; details: cited from earlier work; for adhesion of P. aeruginosa to intestinal epithelial cells: 0.6% solution
[10] = tested on: whole cells of P. aeruginosa (strain PAO1); test: IFN-γ binding to whole cells of P. aeruginosa PAO1 (ELISA, immunofluorescence); design: species or system Pseudomonas aeruginosa
Experimental: IFN-γ direct binding to a protein on the surface of P. aeruginosa, in the course of virulence activation, was also investigated. ELISA binding assays were performed by first coating microtiter plates with P. aeruginosa (strain PAO1), then adding recombinant human IFN-γ (rH IFN-γ), followed by biotin-labeled anti-IFN-γ antibody. IFN-γ avidly bound to whole fixed cells of P. aeruginosa in a dose-dependent manner (FIG. 25A). The ELISA data were confirmed by the results of immunofluorescent imaging of bacterial cells exposed to IFN-γ followed by biotin-labeled anti-IFN-γ antibody and Alexa 594-labeled streptavidin. The vast majority of bacterial cells (73%±3.2% vs. 8.5%±2.5%) bound IFN-γ (FIG. 25B, FIG. 27). The binding capacity of the IFN-γ to the P. aeruginosa was affected by bacterial growth phase (FIG. 28A). In order to localize the binding site of IFN-γ to P. aeruginosa (PAO1), equal protein concentrations of membrane and cytosol fractions of P. aeruginosa were prepared and coated onto ELISA microtiter plates. […] To determine if the observed membrane binding by IFN-γ was protein dependent, membrane fractions were treated with proteinase K for 3 hours and IFN-γ binding assessed.

[11] = tested on: PA-I expression in P. aeruginosa; test: PA-I expression in P. aeruginosa exposed to media containing candidate host agents; assay type: cell-based, Pseudomonas aeruginosa; details: P. aeruginosa in media containing adenosine, TNFα, IL-2, IL-6, IL-8 or IFNγ
From the text: FIG. 10. Exposure of P. aeruginosa to IFNγ induces PA-I expression and the expression of rhlI. For controls (lane 1, 2) bacteria are suspended in media I (Tryptic soy broth) and media II (DMEM +10% FBS ). Lane 3, 4 are MRNA levels from bacteria exposed to IFNγ and TNFα in DMEM.
In addition, strains were exposed to apical media from Caco-2 cells basolaterally exposed to single and combinations of the various epithelial-derived cytokines. […] Media from Caco-2 cells exposed to various combinations of these cytokines had no effect on PA-I expression. […] Using both ELISA, immunofluorescence microscopy, and flow cytometry, the binding characteristics of IFNγ were determined for both whole bacteria and membrane fractions of P. aeruginosa. […] These effects were also observed with strain PAO1. […] It has been difficult to immunoprecipitate a significant quantity of this protein from PA27853, but it has been determined that this protein can also be immunoprecipitated from E. coli (FIG. 12C). Next, IFN-γ binding specificity, to whole bacterial cells, was determined, using reiterative binding studies in the presence of various gram negatie bacterial strains, including P. aeruginosa. […]

[12] = tested on: membrane fractions of P. aeruginosa (PAO1); test: ELISA binding to membrane fractions and solubilized membrane proteins of P. aeruginosa PAO1; design: species or system Pseudomonas aeruginosa
[13] = tested on: PA-I protein expression in P. aeruginosa mutant strains; test: PA-I expression in PAO1 mutant strains exposed to IFN-γ; assay type: cell-based, Pseudomonas aeruginosa
OprF = target: T1, OprF (Pseudomonas aeruginosa, UniProt P13794); test: ELISA binding of IFN-γ to purified OprF; details: dose-dependent
T1 sequence (P13794 25-350): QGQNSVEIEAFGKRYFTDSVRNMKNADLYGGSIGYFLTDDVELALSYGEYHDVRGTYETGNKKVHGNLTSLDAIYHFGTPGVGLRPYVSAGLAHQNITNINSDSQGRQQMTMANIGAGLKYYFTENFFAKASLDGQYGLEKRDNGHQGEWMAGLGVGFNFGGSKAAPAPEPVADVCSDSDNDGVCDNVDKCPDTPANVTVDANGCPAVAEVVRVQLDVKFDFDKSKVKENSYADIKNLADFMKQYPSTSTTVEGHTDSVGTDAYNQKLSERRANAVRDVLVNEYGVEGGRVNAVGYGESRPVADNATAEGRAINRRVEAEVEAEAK

Caco-2 cells = test: TEER of Caco-2 monolayers inoculated with PA27853 with and without IFN-γ; assay type: cell-based, human
Experimental: (§1) In addition, strains were exposed to apical media from Caco-2 cells basolaterally exposed to single and combinations of the various epithelial-derived cytokines. […] Media from Caco-2 cells exposed to various combinations of these cytokines had no effect on PA-I expression. […] Using both ELISA, immunofluorescence microscopy, and flow cytometry, the binding characteristics of IFNγ were determined for both whole bacteria and membrane fractions of P. aeruginosa. […] These effects were also observed with strain PAO1. […] It has been difficult to immunoprecipitate a significant quantity of this protein from PA27853, but it has been determined that this protein can also be immunoprecipitated from E. coli (FIG. 12C). Next, IFN-γ binding specificity, to whole bacterial cells, was determined, using reiterative binding studies in the presence of various gram negatie bacterial strains, including P. aeruginosa. […] Finally, in order to determine if PA-I was functionally expressed in PA27853 in the presence IFN-γ, PA27853 was inoculated onto Caco-2 cell monolayers in the presence of IFN-γ and the effect on barrier dysregulating dynamics of PA27853 against this cell line were assessed to determine if IFN-γ shifted the dynamics. […]

[14] = tested on: PA-I promoter activity in reporter strain PA27853/PLL-EGFP
[15] = tested on: rhlI transcription in PAO1; test: Northern blot of rhlI gene expression in PAO1; assay type: cell-based, Pseudomonas aeruginosa
C4-HSL synthesis in PAO1 = test: C4-HSL in PAO1 supernatant by luminescence reporter strain pSB536; assay type: cell-based, Pseudomonas aeruginosa; details: PAO1, 100 ng/ml IFN-γ, bacterial supernatants
[16] = tested on: whole bacterial cells of PA27853; test: IFN-γ binding to whole bacterial cells of PA27853; design: species or system Pseudomonas aeruginosa
Experimental: as §1

PA-I mRNA in PA27853 = PA-I mRNA in PA27853 exposed to Caco-2 cells or cell fractions with and without GalNac; assay type: cell-based, Pseudomonas aeruginosa; details: in the presence of GalNac
Experimental: Using Caco-2 intestinal epithelial cells, the issue of whether components of intestinal epithelial cells themselves played a role in triggering the expression of PA-I was addressed. Strain PA27853 was exposed to media (apical and basolateral) and Caco-2 cell fractions (cytosolic, nuclear, membrane) at various time intervals. PA-I mRNA was measured in PA27853 in response to the various Caco-2 cell media fractions in the presence and absence of GalNac, a sugar that binds specifically to PA-I and prevents P. aeruginosa adherence to Caco-2 cells. Media alone from Caco-2 cells grown in transwells (apical or basolateral) had no effect on PA-I expression. However, Caco-2 cell membrane fractions triggered the accumulation of a very high abundance of PA-I mRNA (>10 fold increase)-an effect that was attenuated in the presence of GalNac (FIG. 7A). These in vitro findings are in agreement with the above mouse studies showing that PA-I can be activated in response to contact with the intestinal epithelium, yet in the unstressed Caco-2 cell system, luminal contents (apical media) had no effect, similar to the control mice. […]

Sequence of recombinant human Interferon gamma (IFN-γ) (P01579 24-166 limits assumed): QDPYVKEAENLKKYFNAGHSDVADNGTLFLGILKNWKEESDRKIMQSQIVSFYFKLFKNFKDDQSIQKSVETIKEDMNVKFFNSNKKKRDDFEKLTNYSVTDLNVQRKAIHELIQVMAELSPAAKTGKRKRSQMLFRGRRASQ
Sequence of PA-I (Q05097 whole entry): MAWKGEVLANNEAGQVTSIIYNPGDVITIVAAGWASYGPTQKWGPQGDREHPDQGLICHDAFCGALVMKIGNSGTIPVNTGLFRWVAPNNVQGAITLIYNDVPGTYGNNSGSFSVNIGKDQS

For `NC[C@H](O)c1ccc(O)c(O)c1` [norepinephrine], the “effect on QS-dependent virulence factor PA-IL” value (PA-IL in P. aeruginosa) is listed as “can also affect” and the “PA-I expression, in vitro studies” value [1] is listed as “did not change PA-I expression; also recorded: not affected”.

For `CCCC(=O)N[C@H]1CCOC1=O` [C4-HSL, C4-homoserine lactone], the “bacterial growth in TSB media” value (P. aeruginosa) was “Neither compound had an effect”, the “PA-I mRNA by Northern blot” value (lecA (PA-I) mRNA in PAO1) was “Induction of PA-I mRNA was observed” and the PA-I protein expression [2] was “responds to varying doses”. The “onset of PCN production versus cell density” value [3] was “shift in the production of PCN at lower cell densities”, the “PCN production in rhlR mutant strain” value [4] was “did not restore PCN production” and the “PCN production in seven additional mvfR mutants” value [4] was “none of these mutants produced PCN”. The “PCN production in ΔGacA and ΔMvfR” value [4] was “unable to restore PCN production”, the “PCN production in ΔGacA/gacA” value [4] was “decreased, albeit minimally” and the “PCN production in ΔMvfR/mvfR” value [4] was “further increased”. For the same molecule, the “PCN response of MvfR truncation mutant 121-332” value [4] was “did not respond”, the “PCN response of MvfR truncation mutants 1-292, 1-291 and 1-283” value [4] was “did not respond” and the “PCN response of MvfR truncation mutants 1-299 and 1-293” value [4] was “enhanced PCN production”. The “dynamics of PCN production in ΔGacA/gacA” value [4] was “no effect on the dynamics of PCN production”, the “dynamics of PCN production in ΔMvfR/mvfR” value [4] was “shift in PCN production at lower cell densities” and the “PA-I expression, in vitro studies” value [1] was “induced PA-I expression”.

In the case of `CN1CC[C@]23c4c5ccc(O)c4O[C@H]2[C@@H](O)C=C[C@H]3[C@H]1C5` [morphine], the “concentration at tissue sites such as the intestinal mucosa” value [5] is given as ≤ 100 µM, the “mice that developed severe sepsis” value (P. aeruginosa PA27853) is given as 4/4 and the mortality (P. aeruginosa PA27853) is given as “significant mortality”. For the same molecule, the PA-I expression ([6]; PA27853, physiologic concentrations of morphine (13 μM)) was “four-fold increase”, the “increase in PA-I mRNA” value ([6]; PA27853 exposed to morphine (13 μM), quantitative RT-PCR) was 4 fold and the “binding to membrane protein fractions” value [7] was “binds to membrane protein fractions”. The “response to express PA-I” value [1] was “robust response”.

With “recombinant human Interferon gamma (IFN-γ) (from UniProt P01579 24-166) (ligand)” the percent of bacterial cells that bound IFN-γ [8] was 73%.

For `OC[C@H]1O[C@H](OCC2O[C@@H](O)[C@H](O)[C@@H](O)[C@@H]2O)[C@H](O)[C@@H](O)[C@H]1O` (some centres unmarked) [mellibiose], the “binding affinity to PA-I” value (PA-I) is given as “highest binding affinity to date”, the “adhesion of P. aeruginosa to intestinal epithelial cells” value [9] is given as “markedly decreased adhesion” and the “barrier function of intestinal epithelial cells” value [9] is given as “do not alter their barrier function”.

With “IFN-γ: human recombinant Interferon gamma” the “PA-I mRNA by Northern blot” value (lecA (PA-I) mRNA in PAO1) was “Induction of PA-I mRNA was observed”, the “PA-I mRNA” value (lecA (PA-I) mRNA in PAO1; early stationary phase of growth) was “increased” and the “binding to whole fixed cells by ELISA” value ([10]; PAO1, recombinant human IFN-γ) was “avidly bound”. The “bacterial cells that bound IFN-γ” value ([10]; immunofluorescent imaging, versus 8.5%±2.5% control) was 73%±3.2%, the “PA-I expression, candidate agents alone” value [11] was “induced a direct effect on PA-I expression” and the “IFN-γ concentration with the greatest increase in PA-I protein expression” value [2] was 100 ng/mL. For the same molecule, the PA-I protein [2] was “increased”, the “binding to membrane versus cytosol fractions” value ([12]; equal protein concentrations, ELISA) was “preferentially bound to membrane fractions” and the “binding to membranes after proteinase K” value ([12]; proteinase K for 3 hours) was “decreased”. The “binding to solubilized membrane proteins of OprF knockout strains” value ([12]; versus wild-type PAO1, ELISA) was “reduced binding”, the pyocyanin production [3] was “increased pyocyanin production” and the “PA-I expression induced by IFN-γ in rhlI and rhlR mutant strains” value [13] was “abolished”. The “PA-I protein expression in OprF mutant strains” value ([13]; 100 ng/ml of IFN-γ) was “failed to increase the expression of the PA-I protein”, the “PA-I protein expression in strain 31899 reconstituted with OprF” value ([13]; plasmid pUCP24/OprF) was “recovery of their responsiveness” and the “PCN production induced by IFN-γ in rhlI and rhlR mutant strains” value [4] was “abolished”. The “binding to purified OprF” value (OprF) was “directly binds”, the “barrier dysregulating effect of PA27853 (TEER)” value (Caco-2 cells; Caco-2, five hours of incubation) was “enhanced the barrier dysregulating effect” and the “TEER, IFN-γ alone” value (Caco-2 cells; Caco-2, no bacteria) was “Neither media nor IFN-γ alone altered TEER”. For the same molecule, the “PA-I expression, in vitro studies” value [1] was “induced PA-I expression”, the “response to express PA-I” value [1] was “robust response” and the “PA-I expression in reporter strain exposed to cytokines” value [14] was “significant increase in PA-I expression”. For the same molecule, the rhlI transcription [15] was “induced”, the C4-HSL synthesis (C4-HSL synthesis in PAO1) was “increased” and the “binding to whole bacterial cells” value [16] was “high binding affinity”.

In the case of `CC(=O)N[C@H]1C(O)O[C@H](CO)[C@H](O)[C@@H]1O` (stereo partly drawn) [GalNAc, N-acetyl-D-galactosamine], the “PA-I mRNA increase in PA27853 densely adhered to Caco-2 cells” value (PA-I mRNA in PA27853) is given as “nearly completely abolished”, the “PA-I mRNA increase triggered by Caco-2 cell membrane fractions” value (PA-I mRNA in PA27853) is given as “attenuated” and the “adhesion of P. aeruginosa to intestinal epithelial cells” value [9] is given as “markedly decreased adhesion”. The “barrier function of intestinal epithelial cells” value [9] was “do not alter their barrier function”.
